The term GI50 denotes the concentration that inhibits growth by half. The term TGI denotes the concentration at which net growth stops. Read a low TGI as greater sensitivity of the cells.

The values below come from PubChem BioAssay (NCI).

Some test systems named below: HCT-116 colon; MCF7 breast; NCI-H522 lung; SN12C renal; OVCAR-8 ovarian; OVCAR-3 ovarian; M14 melanoma; EKVX NSCLC; COLO 205 colon; SR leukemia.
Holding throughout (experiment): DTP human tumour cell line panel, 48 h

Each structure is given as a SMILES string.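 Values below derive from 48-hour exposures of cells grown in 96-well plates, with endpoints linearly interpolated between the two concentrations bracketing the appropriate inhibition level. Here, GI50 denotes the concentration required for 50% inhibition of growth. At the TGI there is no net growth.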

Consider `COc1cc2c3c(n(CCCBr)c(=O)c2cc1OC)-c1ccc(F)cc1C3=O`, for which the GI50 with HCT-116 colon was 5.72 µM; with MCF7 breast, 4.1 µM; with NCI-H522 lung, 4.9 µM; in the experiment on SN12C renal, 15.6 µM; in the experiment on OVCAR-8 ovarian, 26.4 µM; in the experiment with OVCAR-3 ovarian it was 24.6 µM. The GI50 is 8.92 µM in the experiment with M14 melanoma, 49.5 µM in the experiment on EKVX NSCLC, 33.4 µM with COLO 205 colon and 0.28 µM in the experiment with SR leukemia. In addition, the total growth inhibition concentration (TGI) with HCT-116 colon was 30.6 µM; in the experiment with MCF7 breast, > 100 µM; with NCI-H522 lung it was 36.3 µM; with SN12C renal, > 100 µM; with OVCAR-8 ovarian, > 100 µM; in the experiment on OVCAR-3 ovarian, 99.6 µM. Also, the TGI in the experiment on M14 melanoma is > 100 µM; in the experiment with EKVX NSCLC, > 100 µM; with COLO 205 colon, > 100 µM; in the experiment on SR leukemia, 1.73 µM.
As to `NS(=O)(=O)c1ccc(-n2ncc3c(Nc4ccccc4)ncnc32)cc1`, the GI50 with HCT-116 colon is 27.4 µM; with MCF7 breast it was 49.2 µM; with NCI-H522 lung it was 51.1 µM; with SN12C renal it was > 100 µM; in the experiment on OVCAR-8 ovarian it was 18.3 µM; in the experiment on OVCAR-3 ovarian, 38.2 µM. Further, the GI50 with M14 melanoma was 32.8 µM; in the experiment on EKVX NSCLC it was 41.4 µM; in the experiment on COLO 205 colon it was 21.1 µM; in the experiment with SR leukemia, 29.6 µM. The TGI in the experiment on HCT-116 colon is > 100 µM; in the experiment on MCF7 breast, > 100 µM; in the experiment with NCI-H522 lung, > 100 µM; in the experiment with SN12C renal it was > 100 µM; in the experiment with OVCAR-8 ovarian it was 65 µM; in the experiment on OVCAR-3 ovarian, > 100 µM. Moreover, the TGI in the experiment on M14 melanoma, in the experiment on EKVX NSCLC, in the experiment on COLO 205 colon and in the experiment on SR leukemia was > 100 µM throughout.
As to `O=C1c2ccccc2-c2c1c1ccc([N+](=O)[O-])cc1c(=O)n2CCCNCCO`, the GI50 in the experiment with HCT-116 colon was 0.0612 µM; in the experiment with NCI-H522 lung, 0.154 µM; in the experiment on SN12C renal, 0.287 µM; with OVCAR-8 ovarian, 0.225 µM; in the experiment with OVCAR-3 ovarian, 1.14 µM; with M14 melanoma, 0.0904 µM. Moreover, the figures for the GI50 in the experiment on COLO 205 colon and with SR leukemia were 1.05 µM and 0.0355 µM, respectively. Moreover, the TGI in the experiment on HCT-116 colon came out at 0.441 µM; in the experiment with MCF7 breast, 1.31 µM; in the experiment with NCI-H522 lung it was 1.91 µM; in the experiment with SN12C renal, 2.07 µM; with OVCAR-8 ovarian it was 3.64 µM; with OVCAR-3 ovarian, 2.78 µM. Further, the TGI in the experiment on M14 melanoma is 1.4 µM; with EKVX NSCLC, > 21 µM; in the experiment with COLO 205 colon, 2.81 µM; with SR leukemia it was 1.78 µM.
Turning to `OCC(CCc1c[nH]c2ccccc12)c1c[nH]c2ccccc12` (centres undefined), the TGI is 29.2 µM in the experiment with HCT-116 colon; 35 µM with MCF7 breast; 29.4 µM with NCI-H522 lung; 32.6 µM with SN12C renal; 46.6 µM with OVCAR-8 ovarian; > 100 µM in the experiment on OVCAR-3 ovarian. Moreover, the TGI in the experiment with M14 melanoma is 28.6 µM; in the experiment with EKVX NSCLC, 30.3 µM; with COLO 205 colon, 30.6 µM; in the experiment on SR leukemia, 41.5 µM.
For the compound `O=S(=O)(NC1=NCCN1C(=S)SN1CCn2c1nsc2=S)c1ccccc1Cl`, the GI50 in the experiment with HCT-116 colon is 12.2 µM; in the experiment on MCF7 breast it was 11.5 µM; in the experiment on NCI-H522 lung, 6.08 µM; in the experiment with SN12C renal, 31.6 µM; in the experiment on OVCAR-8 ovarian, 28.6 µM; in the experiment on OVCAR-3 ovarian, 3.89 µM. Further, the GI50 with M14 melanoma is 12.8 µM; in the experiment with EKVX NSCLC, 36.6 µM; in the experiment with COLO 205 colon, 15.1 µM; in the experiment on SR leukemia, 0.469 µM. The TGI with HCT-116 colon is 28.2 µM; with MCF7 breast, > 100 µM; in the experiment on NCI-H522 lung, 21.9 µM; in the experiment on SN12C renal, > 100 µM; in the experiment on OVCAR-8 ovarian it was > 100 µM; in the experiment on OVCAR-3 ovarian, 17.7 µM. In addition, the TGI with M14 melanoma is 27.1 µM; with EKVX NSCLC it was > 100 µM; in the experiment with COLO 205 colon, 55 µM; with SR leukemia it was 3.31 µM.
For `CNC1=C(C(=O)OC)SC(c2ccccc2)(c2ccccc2)SC1`, the GI50 is 9.22 µM with HCT-116 colon; 11.6 µM in the experiment on MCF7 breast; 4.01 µM with NCI-H522 lung; 24 µM with SN12C renal; 24.9 µM in the experiment on OVCAR-8 ovarian; > 100 µM with OVCAR-3 ovarian. Further, the GI50 in the experiment on M14 melanoma was 7.12 µM; in the experiment with EKVX NSCLC it was 36.1 µM; with COLO 205 colon, 23.9 µM; with SR leukemia, 2.4 µM. Further, the total growth inhibition concentration (TGI) in the experiment with HCT-116 colon, in the experiment on MCF7 breast, in the experiment on NCI-H522 lung, in the experiment on SN12C renal, in the experiment with OVCAR-8 ovarian and in the experiment on OVCAR-3 ovarian was > 100 µM throughout. Moreover, the TGI in the experiment with M14 melanoma is 67.7 µM; in the experiment on EKVX NSCLC, > 100 µM; in the experiment on COLO 205 colon, > 100 µM; in the experiment with SR leukemia, 7.93 µM.
In the case of `CSc1ccc(SC2c3ccc(C)cc3Oc3nc(N)c(C#N)c(N)c32)cc1` (centres undefined), the GI50 in the experiment on HCT-116 colon is 1.92 µM; in the experiment with MCF7 breast, 1.84 µM; in the experiment with NCI-H522 lung it was 1.7 µM; in the experiment on SN12C renal, 1.59 µM; in the experiment with OVCAR-8 ovarian it was 1.79 µM; in the experiment on OVCAR-3 ovarian, 1.74 µM. In addition, the GI50 was 1.86 µM in the experiment with M14 melanoma, 1.6 µM with EKVX NSCLC and 2.54 µM in the experiment with SR leukemia. The TGI in the experiment on HCT-116 colon is 3.65 µM; in the experiment with MCF7 breast, 4.34 µM; with NCI-H522 lung it was 3.13 µM; with SN12C renal, 2.94 µM; in the experiment with OVCAR-8 ovarian it was 3.18 µM; in the experiment on OVCAR-3 ovarian it was 3.13 µM. For the same compound, the figures for the TGI with M14 melanoma, in the experiment with EKVX NSCLC and in the experiment on SR leukemia were 3.64 µM, 2.99 µM and 7.65 µM, respectively.
In the case of `Nc1c(C(=O)N/N=C/c2ccc(-c3cc(Cl)c(Cl)cc3Cl)o2)cnn1-c1ccnc2c(C(F)(F)F)cccc12`, the GI50 in the experiment with HCT-116 colon was 3.42 µM; in the experiment on MCF7 breast, 3.42 µM; in the experiment with NCI-H522 lung, 3.37 µM; in the experiment with SN12C renal, 4.42 µM; in the experiment on OVCAR-3 ovarian, 3.1 µM; in the experiment on M14 melanoma it was 5.28 µM. Besides, the GI50 in the experiment on EKVX NSCLC was 3.09 µM; in the experiment on COLO 205 colon, 2.57 µM; with SR leukemia, 4.53 µM. In addition, the TGI in the experiment with HCT-116 colon was > 100 µM; in the experiment on MCF7 breast, > 100 µM; in the experiment on NCI-H522 lung, 31.1 µM; with SN12C renal, > 100 µM; with OVCAR-3 ovarian, > 100 µM; in the experiment on M14 melanoma, > 100 µM. Also, the concentration for total growth inhibition (TGI) in the experiment with EKVX NSCLC came to 49.1 µM; in the experiment with COLO 205 colon it was 5.78 µM; with SR leukemia it was 72.9 µM.
